# Target: PI3K delta (Homo sapiens, UniProt O00329)
# Experiment: Luciferase-coupled chemiluminescence kinase assay (ATP consumption, KinaseGlo)
# Assay type: biochemical
# Outline: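 ATP consumption measured by KinaseGlo luciferase chemiluminescence after a 2 h reaction at ambient temperature, with ATP at or below the kinase KM. Ten inhibitor concentrations per curve; IC50 from four-parameter nonlinear regression.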
# Chain of PI3K delta (O00329 whole entry): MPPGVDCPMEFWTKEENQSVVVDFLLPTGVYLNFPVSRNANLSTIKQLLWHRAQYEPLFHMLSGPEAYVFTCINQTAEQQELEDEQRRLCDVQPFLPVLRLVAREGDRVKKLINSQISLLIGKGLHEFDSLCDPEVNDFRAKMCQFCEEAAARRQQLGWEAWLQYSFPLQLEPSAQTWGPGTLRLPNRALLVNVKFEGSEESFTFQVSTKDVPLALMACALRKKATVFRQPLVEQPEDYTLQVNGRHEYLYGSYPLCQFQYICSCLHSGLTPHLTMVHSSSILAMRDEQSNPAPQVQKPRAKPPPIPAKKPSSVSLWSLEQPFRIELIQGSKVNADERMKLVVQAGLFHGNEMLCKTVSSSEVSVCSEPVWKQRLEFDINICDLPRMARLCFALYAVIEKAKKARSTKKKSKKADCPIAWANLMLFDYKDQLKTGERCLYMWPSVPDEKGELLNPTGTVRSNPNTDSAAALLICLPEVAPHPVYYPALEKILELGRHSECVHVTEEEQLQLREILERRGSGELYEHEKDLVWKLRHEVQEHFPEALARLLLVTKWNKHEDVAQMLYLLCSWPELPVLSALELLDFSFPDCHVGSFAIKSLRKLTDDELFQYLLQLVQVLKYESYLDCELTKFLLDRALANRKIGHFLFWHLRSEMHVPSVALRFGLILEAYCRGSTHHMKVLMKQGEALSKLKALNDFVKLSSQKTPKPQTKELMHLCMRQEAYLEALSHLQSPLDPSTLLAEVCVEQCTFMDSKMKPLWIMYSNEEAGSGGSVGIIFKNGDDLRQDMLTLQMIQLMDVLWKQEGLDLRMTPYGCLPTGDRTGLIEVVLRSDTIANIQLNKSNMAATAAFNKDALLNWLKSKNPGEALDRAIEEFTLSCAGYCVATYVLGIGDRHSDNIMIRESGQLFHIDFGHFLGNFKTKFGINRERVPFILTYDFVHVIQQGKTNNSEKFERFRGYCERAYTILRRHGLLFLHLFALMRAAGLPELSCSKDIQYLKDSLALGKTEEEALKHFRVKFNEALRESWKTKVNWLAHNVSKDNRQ
# Chain of PI3K delta (P27986 whole entry partner): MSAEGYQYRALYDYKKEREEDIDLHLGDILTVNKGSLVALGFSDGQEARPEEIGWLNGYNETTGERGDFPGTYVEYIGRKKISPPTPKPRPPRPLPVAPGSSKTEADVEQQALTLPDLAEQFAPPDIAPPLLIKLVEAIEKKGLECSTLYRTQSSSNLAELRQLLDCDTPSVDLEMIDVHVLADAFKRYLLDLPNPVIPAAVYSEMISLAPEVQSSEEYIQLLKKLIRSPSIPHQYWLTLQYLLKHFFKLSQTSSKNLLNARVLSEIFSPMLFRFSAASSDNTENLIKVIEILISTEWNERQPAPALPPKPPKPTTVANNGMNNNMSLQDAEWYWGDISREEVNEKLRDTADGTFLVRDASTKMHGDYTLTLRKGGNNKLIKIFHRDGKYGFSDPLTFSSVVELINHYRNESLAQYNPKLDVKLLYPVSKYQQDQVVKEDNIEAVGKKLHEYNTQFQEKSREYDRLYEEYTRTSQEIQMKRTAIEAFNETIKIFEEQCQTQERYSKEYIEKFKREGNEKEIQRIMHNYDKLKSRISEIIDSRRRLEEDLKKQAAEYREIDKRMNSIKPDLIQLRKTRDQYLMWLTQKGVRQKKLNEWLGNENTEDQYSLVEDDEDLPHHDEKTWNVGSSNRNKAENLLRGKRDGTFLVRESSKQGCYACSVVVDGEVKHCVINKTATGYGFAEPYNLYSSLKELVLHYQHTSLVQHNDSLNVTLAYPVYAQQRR
row,SMILES,IC50
1,"CC(NC(=O)c1nc2c(N3CCC4(CC3)C(=O)Nc3ccccc34)ncnc2n1C)c1ccccc1 (stereo not drawn) [Compound 23, 9-methyl-6-(2-oxo-1,2-dihydro-1′H-spiro[indole-3,4′-piperidin]-1′-yl)-N-(1-phenylethyl)-9H-purine-8-carboxamide]",500 to 1500 nM
2,"Cc1c(-c2nc3c(N4CCC5(CC4)C(=O)Nc4ccccc45)ncnc3n2C)cnn1C [Compound 246, 1′-[8-(1,5-dimethyl-1H-pyrazol-4-yl)-9-methyl-9H-purin-6-yl]spiro[indole-3,4′-piperidin]-2(1H)-one]",< 50 nM
3,"Cn1c(C(=O)NCCO)nc2c(N3CCC(n4c(=O)[nH]c5ccccc54)CC3)ncnc21 [Compound 55, N-(2-hydroxyethyl)-9-methyl-6-[4-(2-oxo-2,3-dihydro-1H-benzimidazol-1-yl)piperidin-1-yl]-9H-purine-8-carboxamide]",50 to 250 nM
4,"Cn1c(C(=O)N[C@H]2CC[C@H](O)CC2)nc2c(N3CCC4(CC3)C(=O)Nc3ccccc34)ncnc21 [Compound 87, N-(trans-4-hydroxycyclohexyl)-9-methyl-6-(2-oxo-1,2-dihydro-1′H-spiro[indole-3,4′-piperidin]-1′-yl)-9H-purine-8-carboxamide]",< 50 nM
5,"Cc1ccc2[nH]c(=O)n(C3CCN(c4ncnc5c4nc(C(=O)NCC4CC4)n5C)CC3)c2c1 [Compound 206, N-(cyclopropylmethyl)-9-methyl-6-[4-(6-methyl-2-oxo-2,3-dihydro-1H-benzimidazol-1-yl)piperidin-1-yl]-9H-purine-8-carboxamide]",250 to 500 nM
6,"CCn1c(C(=O)NCC2CC2)nc2c(N3CCC(n4c(=O)[nH]c5ccccc54)CC3)ncnc21 [Compound 97, N-(cyclopropylmethyl)-9-ethyl-6-[4-(2-oxo-2,3-dihydro-1H-benzimidazol-1-yl)piperidin-1-yl]-9H-purine-8-carboxamide]",< 50 nM
7,"CCn1c(C(=O)NC2CCC2)nc2c(N3CCC4(CC3)C(=O)Nc3ccccc34)ncnc21 [Compound 221, N-cyclobutyl-9-ethyl-6-(2-oxo-1,2-dihydro-1′H-spiro[indole-3,4′-piperidin]-1′-yl)-9H-purine-8-carboxamide]",< 50 nM
8,"CCn1c(-c2cncnc2)nc2c(N3CCC(n4c(=O)[nH]c5ccccc54)CC3)ncnc21 [Compound 294, 1-[1-(9-ethyl-8-pyrimidin-5-yl-9H-purin-6-yl)piperidin-4-yl]-1,3-dihydro-2H-benzimidazol-2-one]",< 50 nM
9,"Cn1c(C(=O)NCC2CC2)nc2c(N3CCC(N4c5ccccc5NS4(=O)=O)CC3)ncnc21 [Compound 133, N-(cyclopropylmethyl)-6-[4-(2,2-dioxido-2,1,3-benzothiadiazol-1(3H)-yl)piperidin-1-yl]-9-methyl-9H-purine-8-carboxamide]",50 to 250 nM
10,"CC(C)Cn1cc(-c2nc3c(N4CCC(n5c(=O)[nH]c6ccccc65)CC4)ncnc3n2C)cn1 [Compound 148, 1-(1-{9-methyl-8-[1-(2-methylpropyl)-1H-pyrazol-4-yl]-9H-purin-6-yl}piperidin-4-yl)-1,3-dihydro-2H-benzimidazol-2-one]",< 50 nM
11,"CCn1c(-c2ccc(C(F)(F)F)nc2)nc2c(N3CCC(n4c(=O)[nH]c5ncccc54)CC3)ncnc21 [Compound 326, 1-(1-{9-ethyl-8-[6-(trifluoromethyl)pyridin-3-yl]-9H-purin-6-yl}piperidin-4-yl)-1,3-dihydro-2H-imidazo[4,5-b]pyridin-2-one]",< 50 nM
12,"CCc1nnc(-c2nc3c(N4CCC5(CC4)C(=O)Nc4ccccc45)ncnc3n2C)o1 [Compound 182, 1′-[8-(5-ethyl-1,3,4-oxadiazol-2-yl)-9-methyl-9H-purin-6-yl]spiro[indole-3,4′-piperidin]-2(1H)-one]",< 50 nM
13,"Cn1c(-n2cccc2)nc2c(N3CCC(n4c(=O)[nH]c5ccccc54)CC3)ncnc21 [Compound 127, 1-{1-[9-methyl-8-(1H-pyrrol-1-yl)-9H-purin-6-yl]piperidin-4-yl}-1,3-dihydro-2H-benzimidazol-2-one]",500 to 1500 nM
14,"Cn1c(C(=O)N2CC[C@H](F)C2)nc2c(N3CCC4(CC3)C(=O)Nc3ccccc34)ncnc21 [Compound 109, 1′-(8-{[(3S)-3-fluoropyrrolidin-1-yl]carbonyl}-9-methyl-9H-purin-6-yl)spiro[indole-3,4′-piperidin]-2(1H)-one]",50 to 250 nM
15,"Cn1c(C(=O)N2CCCC2)nc2c(N3CCC4(CC3)C(=O)Nc3ccccc34)ncnc21 [Compound 35, 1′-[9-methyl-8-(pyrrolidin-1-ylcarbonyl)-9H-purin-6-yl]spiro[indole-3,4′-piperidin]-2(1H)-one]",500 to 1500 nM
16,"COC(=O)[C@@H]1CN(c2ncnc3c2nc(-c2cnn(C)c2)n3C)CC[C@H]1n1c(=O)[nH]c2ccccc21 [Compound 334, methyl (3R,4R)-1-[9-methyl-8-(1-methyl-1H-pyrazol-4-yl)-9H-purin-6-yl]-4-(2-oxo-2,3-dihydro-1H-benzimidazol-1-yl)piperidine-3-carboxylate]",< 50 nM
17,"CCn1c(C(=O)NCC(C)(C)C)nc2c(N3CCC(n4c(=O)[nH]c5ccccc54)CC3)ncnc21 [Compound 190, N-(2,2-dimethylpropyl)-9-ethyl-6-[4-(2-oxo-2,3-dihydro-1H-benzimidazol-1-yl)piperidin-1-yl]-9H-purine-8-carboxamide]",< 50 nM

row,SMILES,IC50
1,"Cn1c(C(=O)NCC2CCOCC2)nc2c(N3CCC(n4c(=O)[nH]c5ccccc54)CC3)ncnc21 [Compound 5, 9-methyl-6-[4-(2-oxo-2,3-dihydro-1H-benzimidazol-1-yl)piperidin-1-yl]-N-(tetrahydro-2H-pyran-4-ylmethyl)-9H-purine-8-carboxamide]",< 50 nM
2,"CCn1c(-c2cnc(NC)nc2)nc2c(N3CCC(n4c(=O)[nH]c5ccccc54)CC3)ncnc21 [Compound 307, 1-(1-{9-ethyl-8-[2-(methylamino)pyrimidin-5-yl]-9H-purin-6-yl)piperidin-4-yl)-1,3-dihydro-2H-benzimidazol-2-one]",< 50 nM
3,"CCCC(=O)c1nc2c(N3CCC(n4c(=O)[nH]c5ccccc54)CC3)ncnc2n1C [Compound 113, 1-[1-(8-butanoyl-9-methyl-9H-purin-6-yl)piperidin-4-yl]-1,3-dihydro-2H-benzimidazol-2-one]",50 to 250 nM
4,"CCn1c(C(=O)NCC(C)(C)O)nc2c(N3CCC4(CC3)C(=O)Nc3ccccc34)ncnc21 [Compound 224, 9-ethyl-N-(2-hydroxy-2-methylpropyl)-6-(2-oxo-1,2-dihydro-1′H-spiro[indole-3,4′-piperidin]-1′-yl)-9H-purine-8-carboxamide]",< 50 nM
5,"CCc1nnc(-c2nc3c(N4CCC(n5c(=O)[nH]c6ccccc65)CC4)ncnc3n2C)o1 [Compound 114, 1-{1-[8-(5-ethyl-1,3,4-oxadiazol-2-yl)-9-methyl-9H-purin-6-yl]piperidin-4-yl}-1,3-dihydro-2H-benzimidazol-2-one]",< 50 nM
6,"Cn1c(-c2cnc(N)nc2)nc2c(N3CCC(n4c(=O)[nH]c5ccccc54)CC3)ncnc21 [Compound 305, 1-{1-[8-(2-aminopyrimidin-5-yl)-9-methyl-9H-purin-6-yl]piperidin-4-yl}-1,3-dihydro-2H-benzimidazol-2-one]",< 50 nM
7,"Cn1c(C(=O)NCC2CC2)nc2c(N3CCC(n4ccc5ccccc54)CC3)ncnc21 [Compound 121, N-(cyclopropylmethyl)-6-[4-(1H-indol-1-yl)piperidin-1-yl]-9-methyl-9H-purine-8-carboxamide]",500 to 1500 nM
8,"CCn1c(-c2ccnnc2)nc2c(N3CCC4(CC3)C(=O)Nc3ccccc34)ncnc21 [Compound 316, 1′-(9-ethyl-8-pyridazin-4-yl-9H-purin-6-yl)spiro[indole-3,4′-piperidin]-2(1H)-one]",< 50 nM
9,"CCn1c(-c2cnn(C)c2)nc2c(N3CCC(n4c(=O)[nH]c5ccccc54)CC3)ncnc21 [Compound 243, 1-{1-[9-ethyl-8-(1-methyl-1H-pyrazol-4-yl)-9H-purin-6-yl]piperidin-4-yl}-1,3-dihydro-2H-benzimidazol-2-one]",< 50 nM
10,"Cn1c(-n2cnc3ccccc32)nc2c(N3CCC(n4c(=O)[nH]c5ccccc54)CC3)ncnc21 [Compound 259, 1-{1-[8-(1H-benzimidazol-1-yl)-9-methyl-9H-purin-6-yl]piperidin-4-yl}-1,3-dihydro-2H-benzimidazol-2-one]",< 50 nM
11,"CC(C)NC(=O)c1nc2c(N3CCC4(CC3)C(=O)Nc3ccccc34)ncnc2n1C [Compound 24, 9-methyl-N-(1-methylethyl)-6-(2-oxo-1,2-dihydro-1′H-spiro[indole-3,4′-piperidin]-1′-yl)-9H-purine-8-carboxamide]",50 to 250 nM
12,"Cn1c(C(=O)NC2CCC(F)(F)CC2)nc2c(N3CCC4(CC3)C(=O)Nc3ccccc34)ncnc21 [Compound 105, N-(4,4-difluorocyclohexyl)-9-methyl-6-(2-oxo-1,2-dihydro-1′H-spiro[indole-3,4′-piperidin]-1′-yl)-9H-purine-8-carboxamide]",50 to 250 nM
13,"Cn1c(C(=O)NCCCc2ccccc2)nc2c(N3CCC(n4c(=O)[nH]c5ccccc54)CC3)ncnc21 [Compound 65, 9-methyl-6-[4-(2-oxo-2,3-dihydro-1H-benzimidazol-1-yl)piperidin-1-yl]-N-(3-phenylpropyl)-9H-purine-8-carboxamide]",500 to 1500 nM
14,"Cn1c(C(=O)NCCO)nc2c(N3CCC4(CC3)C(=O)Nc3ccccc34)ncnc21 [Compound 25, N-(2-hydroxyethyl)-9-methyl-6-(2-oxo-1,2-dihydro-1′H-spiro[indole-3,4′-piperidin]-1′-yl)-9H-purine-8-carboxamide]",250 to 500 nM
15,"Cn1c(-c2nnc(C3CC3)o2)nc2c(N3CCC4(CC3)C(=O)Nc3ccccc34)ncnc21 [Compound 184, 1′-[8-(5-cyclopropyl-1,3,4-oxadiazol-2-yl)-9-methyl-9H-purin-6-yl]spiro[indole-3,4′-piperidin]-2(1H)-one]",< 50 nM
16,"Cn1c(C(=O)NCC2CC2)nc2c(N3CCC(n4c(C(F)(F)F)nc5ccccc54)CC3)ncnc21 [Compound 101, N-(cyclopropylmethyl)-9-methyl-6-{4-[2-(trifluoromethyl)-1H-benzimidazol-1-yl]piperidin-1-yl}-9H-purine-8-carboxamide]",250 to 500 nM

# From US20140058103A1, “Inhibitors of PI3K-Delta and Methods of Their Use and Manufacture” (Exelixis, Inc., priority 2010, published 2014)
